Test results reported in paper PMC8140105 (Scientific Reports, 2021).
Values joined by “and” are separate entries in the source; they are usually repeats but may differ in a detail not shown here. Equal entries are not always repeated.

Experiments:
[1] = Brain-to-blood transport (efflux); format: in vivo, ICR-CD-1 mice; settings: kout not significantly different from zero
Protocol: Briefly, 0.1 µmol of the lyophilized peptide was dissolved in 100 µL of phosphate buffer (pH 7.4, 25 mM). A Iodo-Gen coated tube (Thermo Scientific, Merelbeke, Belgium) was first of all rinsed with 1 mL of phosphate buffer. Subsequently, 50 µL of sodium iodide solution (1.1 µmol/mL) and 1 mCi of Na^125I solution (Perking Elmer, Zaventem, Belgium) were transferred into this Iodo-Gen coated tube. The oxidation reaction was allowed to proceed for six minutes at room temperature, after which the iodonium solution was transferred to 50 µL of peptide solution (1 mM). The iodination reaction of the peptide was allowed to proceed for another six minutes at room temperature. […]
We quantified the amount of peptide exported out of the brain as previously described. […] Then, the whole brain was collected, weighed and measured in a gamma counter for 5 min. Fifty µL of serum, which was obtained by centrifuging the collected blood at 10,000g during 15 min at 21 °C, and the background was also measured in a gamma counter. The efflux half-life was calculated from the linear regression of the natural logarithm of the residual radioactivity in brain versus time as follows:3 t1/2=ln(2)/kout where kout is defined as the efflux rate constant calculated as the negative value of the slope of the linear regression, applying first order kinetics.

SH-SY5Y neuroblast cells = experiment: MTT assay on SH-SY5Y neuroblast cells; format: cell-based; settings: n = 6
Protocol: SH-SY5Y neuroblast cells (Sigma-Aldrich, Diegem, Belgium) were grown in F12:MEM (50/50 v/v) medium supplemented with 15% FBS, 1% non-essential amino acids (NEAA), 2 mM L-Glutamine and 1% penicillin/streptomycin solution (Life Technologies, Belgium) in an incubator set at 37 °C and 5% CO2. When confluent, cells were detached using 0.25% Trypsin–EDTA.
SH-SY5Y cells were seeded at a density of 5 × 10^4 cells/well in a 96-well plate and incubated for 24 h. Next, medium was removed and replaced by 200 µL conditioned medium of BV-2 cells which were treated for 20 h with PapRIV. After 24 h incubation, 20 µL MTT reagent (12 mM) was added and incubated for 3 h. Finally, the medium was removed and replaced by 150 µL DMSO and measured at 570 nm with a microplate reader (Thermofisher, Waltham, USA).

[2] = Ex vivo metabolization in serum, tissue and faeces homogenates; format: in vitro ADME, ICR-CD-1 mice; settings: UPLC-UV/MS; for T1/2 / Metabolites: 37 °C; for T1/2: first order kinetics
Protocol: Peptide solution (0.1 mg/mL) was incubated with serum, brain, liver, kidney, colon or faeces homogenate at 37 °C. After 0, 5, 10, 30 and 60 min, aliquots were taken for UPLC-UV/MS analysis. Preparation of the tissue homogenates and UPLC-UV/MS parameters are given in supplementary information (Supplementary methods S3-S4). The half-live was calculated using the following equation:4 T1/2=-ln(2)/Slope where the slope is defined by linear regression assuming first order kinetics.
Supplementary method S3: Tissue homogenate preparation
Preparation of Krebs-Henseleit buffer (pH 7.4) (KH-buffer)
The powdered medium was dissolved in 900 mL water while stirring. To this solution, 0.3790 g CaCl2×2H2O and 2.098 g NaHCO3 was subsequently added while stirring. NaOH or HCl was used to adjust to pH 7.4. This solution was then further diluted to 1000 mL using ultrapure […]
Preparation of tissue homogenates
- The liver (n = 1), kidneys (n = 6), brains (n = 3), colons (n = 4) and faeces (0.196 g) of ICR-CD-1 mice were collected.
- After cleaning and rinsing the tissues using ice-cold KH buffer, the tissues were cut in little pieces and transferred into a 50 mL tube to which 36 mL ice-cold KH buffer was added.
- The tissues were then homogenized with at tissue homogenizer.
- After the larger particles were allowed to settle for about 30 minutes at 5°C, approximately 25 mL of the middle layer was transferred into a 50 mL Falcon tube using a plastic pipette.
- After shaking the homogenates, the homogenates were dispensed into 2 mL Eppendorf tubes, and stored at -35°C until use.
- The protein content of the homogenates were determined using the Pierce Modified Lowry […]
- Just before use, the homogenates were diluted to a protein concentration of 0.6 mg/mL (i.e.
300 µg / 500 µL) with KH buffer.
- Into a 1.5 ml Protein LoBind tube, 900 µl of serum/tissue extract (500 µl of homogenate/serum and 400 µl of KH buffer, pH 7.4) was transferred.
- After temperature-equilibration at 37°C for 15 min while shaking at 750 rpm, 100 µl of peptide solution (0.1 mg/mL) was added followed by continued incubation at 37°C (while shaking), with […] aliquots taken after 0, 5, 10, 30 and 60 minutes.
- The aliquots were immediately transferred into 500 µl Protein LoBind Eppendorf tubes containing 100 µl of 1% V/V trifluoroacetic acid solution in water, heated for 5 minutes at 95°C, and cooled for 30 minutes in an ice-bath.
- The samples were then centrifuged at 16,000 g for 5 minutes at 5°C.
- The supernatants was then analyzed by UPLC-UV/MS.
Supplementary method S4: UPLC-UV/MS parameters ex vivo metabolization
The analytical parameters of the UPLC-UV/MS method for the ex vivo metabolization are given […]
Table 3: Analytical parameters of UPLC method […]
Needle wash H2O/ACN/DMSO (45/45/10), post injection (6 s)
Seal wash Methanol/H2O (10/90)

For “SDLPFEH [PapRIV, heptapeptide (SDLPFEH) quorum sensing peptide originating from the Bacillus cereus group; synthetic, purchased from GL Biochem]”, the “efflux from brain back to the circulation” value [1] was “no efflux”, the “viability of SH-SY5Y cells with conditioned medium of treated BV-2 cells” value (SH-SY5Y neuroblast cells; BV-2 treated 20 h, conditioned medium on SH-SY5Y 24 h) was “significant decreased viability” and the “toxicity of direct treatment of SH-SY5Y cells” value (SH-SY5Y neuroblast cells; direct peptide treatment) was “no significant toxic effects”. For the same substance, the T1/2 ([2]; mouse brain homogenate 0.6 mg/mL protein in KH buffer pH 7.4, peptide solution 0.1 mg/mL added, 0–60 min) was 522.9 min, the Metabolites ([2]; mouse brain homogenate, 0–60 min) was “DLPFEH, LPFEH” and the “metabolization in colon tissue” value ([2]; mouse colon homogenate 0.6 mg/mL protein in KH buffer pH 7.4, 37 °C, 0–60 min) was “no metabolization was observed”. The T1/2 ([2]; mouse faeces homogenate 0.6 mg/mL protein in KH buffer pH 7.4, peptide solution 0.1 mg/mL added, 0–60 min) was 89.7 min, the Metabolites ([2]; mouse faeces homogenate, 0–60 min) was “DLPFEH” and the T1/2 ([2]; mouse kidney homogenate 0.6 mg/mL protein in KH buffer pH 7.4, peptide solution 0.1 mg/mL added, 0–60 min) was 20 min and 19.8 min. The Metabolites ([2]; mouse kidney homogenate, 0–60 min) was “DLPFEH, LPFEH”, the T1/2 ([2]; mouse liver homogenate 0.6 mg/mL protein in KH buffer pH 7.4, peptide solution 0.1 mg/mL added, 0–60 min) was 285.7 min and the Metabolites ([2]; mouse liver homogenate, 0–60 min) was “DLPFEH, LPFEH”. For the same substance, the T1/2 ([2]; serum (500 µl + 400 µl KH buffer pH 7.4 + 100 µl peptide solution 0.1 mg/mL), shaking 750 rpm, aliquots 0, 5, 10, 30, 60 min) was 25 min and 24.8 min and the Metabolites ([2]; serum, 0–60 min) was “DLPFEH, LPFEH, LPFE, LPF, SDLPF, DLPF”.
